Key:
SETVI [1] = test: Post-emergence herbicidal action against SETVI; format: in vivo, Setaria viridis; conditions: application rate 80 g/ha, rated visually after about 3 weeks
Procedure, shortened: (§1)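 Activity was scored by eye roughly 3 weeks post-treatment relative to untreated plants, on a scale where 0% equals control and 100% equals dead plants. Treatment: spray onto green parts at one-leaf stage (2–3 weeks from sowing, sandy loam, greenhouse), WP/EC formulations with 0.5% additive, 600 l/ha water.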

ECHCG [2] = test: Pre-emergence herbicidal action against ECHCG; format: in vivo, Echinochloa crus-galli; conditions: application rate 80 g/ha, scored visually after about 3 weeks vs untreated controls (100% = plants have died, 0% = like control plants)
Source text: (§2) 1. Pre-emergence herbicidal action against harmful plants and crop plant compatibility Seeds of monocotyledonous and dicotyledonous weed plants and crop plants are placed in plastic or wood-fibre pots and covered with soil. The compounds of the invention, formulated in the form of wettable powders (WP) or as emulsion concentrates (EC), are then applied onto the surface of the covering soil as aqueous suspension or emulsion with addition of 0.5% additive at a water application rate of 600 l/ha (converted). After the treatment, the pots are placed in a greenhouse and kept under good growth conditions for the trial plants. After about 3 weeks, the effect of the preparations is scored visually in comparison with untreated controls as percentages. For example, 100% activity=the plants have died, 0% activity=like control plants. [table]

AVEFA [3] = test: Post-emergence herbicidal action against AVEFA; format: in vivo, Avena fatua; conditions: application rate 80 g/ha, rated visually after about 3 weeks
Procedure, shortened: as §1

HORMU [4] = test: Post-emergence herbicidal action against HORMU; format: in vivo, Hordeum murinum; conditions: application rate 80 g/ha
Procedure, shortened: as §1

LOLRI [5] = test: Pre-emergence herbicidal action against LOLRI; format: in vivo, Lolium rigidum; conditions: application rate 80 g/ha, scored visually after about 3 weeks vs untreated controls (100% = plants have died, 0% = like control plants)
Source text: as §2

POLCO [6] = test: Pre-emergence herbicidal action against POLCO; format: in vivo, Polygonum convolvulus; conditions: application rate 80 g/ha
Source text: as §2

HORMU [7] = test: Pre-emergence herbicidal action against HORMU; format: in vivo, Hordeum murinum; conditions: application rate 80 g/ha
Source text: as §2

POLCO [8] = test: Post-emergence herbicidal action against POLCO; format: in vivo, Polygonum convolvulus; conditions: application rate 80 g/ha, rated visually about 3 weeks after treatment
Procedure, shortened: as §1

ALOMY [9] = test: Pre-emergence herbicidal action against ALOMY; format: in vivo, Alopecurus myosuroides; conditions: application rate 80 g/ha, scored visually after about 3 weeks vs untreated controls (100% = plants have died, 0% = like control plants)
Source text: as §2

AMARE [10] = test: Post-emergence herbicidal action against AMARE; format: in vivo, Amaranthus retroflexus; conditions: application rate 80 g/ha, rated visually about 3 weeks after treatment
Procedure, shortened: as §1

AVEFA [11] = test: Pre-emergence herbicidal action against AVEFA; format: in vivo, Avena fatua; conditions: application rate 80 g/ha, scored visually after about 3 weeks vs untreated controls (100% = plants have died, 0% = like control plants)
Source text: as §2

ECHCG [12] = test: Post-emergence herbicidal action against ECHCG; format: in vivo, Echinochloa crus-galli; conditions: application rate 80 g/ha, rated visually after about 3 weeks
Procedure, shortened: as §1

VERPE [13] = test: Pre-emergence herbicidal action against VERPE; format: in vivo, Veronica persica; conditions: application rate 80 g/ha
Source text: as §2

VIOTR [14] = test: Pre-emergence herbicidal action against VIOTR; format: in vivo, Viola tricolor; conditions: application rate 80 g/ha
Source text: as §2

PHBPU [15] = test: Pre-emergence herbicidal action against PHBPU; format: in vivo, Pharbitis purpurea; conditions: application rate 80 g/ha
Source text: as §2

ABUTH = test: Post-emergence herbicidal action against ABUTH; format: in vivo, Abutilon theophrasti; conditions: application rate 80 g/ha, rated visually about 3 weeks after treatment
Procedure, shortened: as §1

ALOMY [16] = test: Post-emergence herbicidal action against ALOMY; format: in vivo, Alopecurus myosuroides; conditions: application rate 80 g/ha, rated visually after about 3 weeks
Procedure, shortened: as §1

STEME [17] = test: Post-emergence herbicidal action against STEME; format: in vivo, Stellaria media; conditions: application rate 80 g/ha, rated visually about 3 weeks after treatment
Procedure, shortened: as §1

SETVI [18] = test: Pre-emergence herbicidal action against SETVI; format: in vivo, Setaria viridis; conditions: application rate 80 g/ha, scored visually after about 3 weeks vs untreated controls (100% = plants have died, 0% = like control plants)
Source text: as §2

STEME [19] = test: Pre-emergence herbicidal action against STEME; format: in vivo, Stellaria media; conditions: application rate 80 g/ha
Source text: as §2

LOLRI [20] = test: Post-emergence herbicidal action against LOLRI; format: in vivo, Lolium rigidum; conditions: application rate 80 g/ha, rated visually after about 3 weeks
Procedure, shortened: as §1

MATIN = test: Pre-emergence herbicidal action against MATIN; format: in vivo, Matricaria inodora; conditions: application rate 80 g/ha, scored visually after about 3 weeks vs untreated controls (100% = plants have died, 0% = like control plants)
Source text: as §2

AMARE [21] = test: Pre-emergence herbicidal action against AMARE; format: in vivo, Amaranthus retroflexus; conditions: application rate 80 g/ha
Source text: as §2

PHBPU [22] = test: Post-emergence herbicidal action against PHBPU; format: in vivo, Pharbitis purpurea; conditions: application rate 80 g/ha, rated visually about 3 weeks after treatment
Procedure, shortened: as §1

VERPE [23] = test: Post-emergence herbicidal action against VERPE; format: in vivo, Veronica persica; conditions: application rate 80 g/ha
Procedure, shortened: as §1

VIOTR [24] = test: Post-emergence herbicidal action against VIOTR; format: in vivo, Viola tricolor; conditions: application rate 80 g/ha, rated visually about 3 weeks after treatment
Procedure, shortened: as §1

SMILES	Herbicidal action against [%] SETVI (SETVI [1]) [%]	Herbicidal action against [%] ECHCG (ECHCG [2]) [%]	Herbicidal action against [%] AVEFA (AVEFA [3]) [%]	Herbicidal action against [%] HORMU (HORMU [4]) [%]	Herbicidal action against [%] LOLRI (LOLRI [5]) [%]	Herbicidal action against [%] POLCO (POLCO [6]) [%]	Herbicidal action against [%] HORMU (HORMU [7]) [%]	Herbicidal action against [%] ALOMY (ALOMY [9]) [%]	Herbicidal action against [%] AMARE (AMARE [10]) [%]	Herbicidal action against [%] AVEFA (AVEFA [11]) [%]	Herbicidal action against [%] ECHCG (ECHCG [12]) [%]	Herbicidal action against [%] VIOTR (VIOTR [14]) [%]	Herbicidal action against [%] PHBPU (PHBPU [15]) [%]	Herbicidal action against [%] ALOMY (ALOMY [16]) [%]	Herbicidal action against [%] STEME (STEME [17]) [%]	Herbicidal action against [%] SETVI (SETVI [18]) [%]	Herbicidal action against [%] STEME (STEME [19]) [%]	Herbicidal action against [%] LOLRI (LOLRI [20]) [%]	Herbicidal action against [%] MATIN (MATIN) [%]	Herbicidal action against [%] AMARE (AMARE [21]) [%]	also measured
CCOC(=O)C1=CC[C@H](NC(=O)C2(C)CC(c3cccc(F)c3)=NO2)C1 (stereo partly drawn) [III-06]	80	90	80	90	100	100	90	100	80	80	80	90	80	90	90	100	90	90	–	–	Herbicidal action against [%] POLCO (POLCO [8]): 80%; Herbicidal action against [%] VERPE (VERPE [13]): 80%; Herbicidal action against [%] ABUTH (ABUTH): 80%
CONC(=O)[C@@H]1C=C[C@H](NC(=O)C2(C)CC(c3cc(F)cc(F)c3)=NO2)C1 (stereo partly drawn) [II-02]	80	80	80	–	90	100	–	90	80	90	80	90	90	80	90	100	100	80	90	100	–
COC(=O)[C@@H]1C=C[C@H](NC(=O)C2(C)CC(c3cccc(F)c3)=NO2)C1 (stereo partly drawn) [Example I-004]	80	100	90	–	90	100	–	100	80	90	80	–	90	80	80	100	100	80	80	80	–
CC1(C(=O)NC2CC=C(C(=O)NS(C)(=O)=O)C2)CC(c2cccc(F)c2)=NO1 (mixture of isomers) [IV-07]	80	–	80	90	90	80	90	100	80	80	80	90	90	90	90	100	100	90	80	80	Herbicidal action against [%] PHBPU (PHBPU [22]): 80%; Herbicidal action against [%] POLCO (POLCO [8]): 80%; Herbicidal action against [%] VERPE (VERPE [23]): 80%; Herbicidal action against [%] VIOTR (VIOTR [24]): 80%
COC(=O)C1=CC[C@H](NC(=O)C2(C)CC(c3cccc(F)c3)=NO2)C1 (stereo partly drawn) [III-04]	80	90	100	100	100	100	100	100	80	90	80	90	90	90	80	100	90	90	–	90	Herbicidal action against [%] PHBPU (PHBPU [22]): 90%; Herbicidal action against [%] POLCO (POLCO [8]): 80%; Herbicidal action against [%] VERPE (VERPE [13]): 90%
CCONC(=O)[C@@H]1C=C[C@H](NC(=O)C2(C)CC(c3cccc(F)c3)=NO2)C1 (stereo partly drawn) [II-04]	80	90	80	–	90	90	90	100	–	80	80	–	–	80	80	90	100	80	80	100	–

From patent US12319664B2, “Herbicidally active 3-phenylisoxazoline-5-carboxamides of cyclopentenylcarboxylic acid derivatives” (Bayer Aktiengesellschaft, priority 2018, dated 2025)
